According to ChEMBL document CHEMBL3091422, “Endothelial lipase inhibitors for the treatment of atherosclerosis and cardiovascular disorders” (ACS Med Chem Lett, 2013):

Key:
[1] = molecular target: T1, Endothelial lipase (Homo sapiens, UniProt Q9Y5X9); assay: Inhibition of human endothelial lipase using PLAi as substrate measured for 30 mins by cell-based fluorescence assay
T1 sequence (Q9Y5X9 whole entry): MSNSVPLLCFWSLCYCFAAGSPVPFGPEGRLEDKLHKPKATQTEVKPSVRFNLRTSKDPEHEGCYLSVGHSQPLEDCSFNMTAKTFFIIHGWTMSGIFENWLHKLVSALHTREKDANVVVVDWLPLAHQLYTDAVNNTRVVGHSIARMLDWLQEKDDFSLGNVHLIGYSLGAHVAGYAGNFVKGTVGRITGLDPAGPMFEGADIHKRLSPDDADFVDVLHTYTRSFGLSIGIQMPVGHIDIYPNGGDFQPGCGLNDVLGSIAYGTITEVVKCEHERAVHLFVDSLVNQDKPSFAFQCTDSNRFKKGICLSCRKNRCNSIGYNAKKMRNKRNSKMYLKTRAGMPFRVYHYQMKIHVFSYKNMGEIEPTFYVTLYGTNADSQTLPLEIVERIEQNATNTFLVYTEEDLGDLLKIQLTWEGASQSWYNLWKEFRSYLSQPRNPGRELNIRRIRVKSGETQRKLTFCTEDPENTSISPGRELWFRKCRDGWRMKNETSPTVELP

[2] = molecular target: T2, Endothelial lipase (Mus musculus, UniProt Q9WVG5); assay: Inhibition of mouse endothelial lipase using PLAi as substrate measured for 30 mins by cell-based fluorescence assay
T2 sequence (Q9WVG5 whole entry): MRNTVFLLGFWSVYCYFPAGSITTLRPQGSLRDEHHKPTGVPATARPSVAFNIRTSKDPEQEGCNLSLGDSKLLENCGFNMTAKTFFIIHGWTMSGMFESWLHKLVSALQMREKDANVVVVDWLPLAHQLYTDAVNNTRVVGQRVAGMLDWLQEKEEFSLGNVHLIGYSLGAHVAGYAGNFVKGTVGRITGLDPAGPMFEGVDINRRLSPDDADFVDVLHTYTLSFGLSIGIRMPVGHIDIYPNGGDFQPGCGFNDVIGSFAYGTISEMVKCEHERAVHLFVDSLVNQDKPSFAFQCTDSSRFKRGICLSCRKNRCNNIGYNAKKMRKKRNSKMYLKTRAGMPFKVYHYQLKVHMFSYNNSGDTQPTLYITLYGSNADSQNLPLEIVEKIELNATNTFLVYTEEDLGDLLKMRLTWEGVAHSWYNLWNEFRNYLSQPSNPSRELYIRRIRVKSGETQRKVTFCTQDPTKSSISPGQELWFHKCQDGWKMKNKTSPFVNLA

| Structure (SMILES) | IC50 [1] | IC50 [2] |
| --- | --- | --- |
| Nc1cc2c3c(c1)c(C(F)(F)F)c(CCCc1ccccc1)n3CCC2 | 4 nM | 4 nM |
| FC(F)(F)c1c(CCCc2ccccc2)n2c3c(cccc13)SCC2 | 33300 nM | 33300 nM |
| COc1cc2c3c(c1)c(C(F)(F)F)c(CCc1ccccc1)n3CCC2 | 14 nM | 17 nM |
